Results: PubChem BioAssay (NCI)
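A five-concentration, 48-hour dose response in 96-well plates underlies each endpoint, interpolated linearly between surrounding concentrations. TGI marks complete inhibition of growth.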

Assays:
Experiment in all cases: NCI anticancer screen, dose series, 48 h
SNB-75 CNS = tested on: SNB-75 CNS
OVCAR-4 ovarian = tested on: OVCAR-4 ovarian
MDA-MB-231 breast = tested on: MDA-MB-231 breast
HOP-92 NSCLC = tested on: HOP-92 NSCLC
UACC-62 melanoma = tested on: UACC-62 melanoma
OVCAR-3 ovarian = tested on: OVCAR-3 ovarian
786-0 renal = tested on: 786-0 renal
MOLT-4 leukemia = tested on: MOLT-4 leukemia
SNB-19 CNS = tested on: SNB-19 CNS
K-562 leukemia = tested on: K-562 leukemia
EKVX NSCLC = tested on: EKVX NSCLC
CAKI-1 renal = tested on: CAKI-1 renal
KM12 colon = tested on: KM12 colon
SF-268 CNS = tested on: SF-268 CNS
NCI-H460 lung = tested on: NCI-H460 lung
UO-31 renal = tested on: UO-31 renal
CCRF-CEM leukemia = tested on: CCRF-CEM leukemia
IGROV1 ovarian = tested on: IGROV1 ovarian
A549 NSCLC = tested on: A549 NSCLC
HCT-116 colon = tested on: HCT-116 colon
TK-10 renal = tested on: TK-10 renal
HS 578T breast = tested on: HS 578T breast
PC-3 prostate = tested on: PC-3 prostate
SK-OV-3 ovarian = tested on: SK-OV-3 ovarian
SK-MEL-2 melanoma = tested on: SK-MEL-2 melanoma
ACHN renal = tested on: ACHN renal
NCI-H522 lung = tested on: NCI-H522 lung
SW-620 colon = tested on: SW-620 colon
OVCAR-8 ovarian = tested on: OVCAR-8 ovarian
NCI/ADR-RES ovarian = tested on: NCI/ADR-RES ovarian
BT-549 breast = tested on: BT-549 breast
MDA-MB-435 = tested on: MDA-MB-435
COLO 205 colon = tested on: COLO 205 colon
SK-MEL-28 melanoma = tested on: SK-MEL-28 melanoma
HCC-2998 colon = tested on: HCC-2998 colon
SF-539 CNS = tested on: SF-539 CNS
MDA-N = tested on: MDA-N
SR leukemia = tested on: SR leukemia
M14 melanoma = tested on: M14 melanoma
NCI-H23 lung = tested on: NCI-H23 lung
NCI-H226 lung = tested on: NCI-H226 lung
HOP-62 NSCLC = tested on: HOP-62 NSCLC
RXF 393 renal = tested on: RXF 393 renal
HL-60(TB) leukemia = tested on: HL-60(TB) leukemia
LOX IMVI melanoma = tested on: LOX IMVI melanoma
U251 CNS = tested on: U251 CNS
DU-145 prostate = tested on: DU-145 prostate
SK-MEL-5 melanoma = tested on: SK-MEL-5 melanoma
RPMI-8226 leukemia = tested on: RPMI-8226 leukemia
HCT-15 colon = tested on: HCT-15 colon
SF-295 CNS = tested on: SF-295 CNS
MCF7 breast = tested on: MCF7 breast
MALME-3M melanoma = tested on: MALME-3M melanoma
OVCAR-5 ovarian = tested on: OVCAR-5 ovarian
UACC-257 melanoma = tested on: UACC-257 melanoma
HT29 colon = tested on: HT29 colon
SN12C renal = tested on: SN12C renal
A498 renal = tested on: A498 renal

Cc1cc(C)c(S(=O)(=O)N2CCCN(S(=O)(=O)c3c(C)cc(C)cc3C)OCCCON(S(=O)(=O)c3c(C)cc(C)cc3C)CCCN(S(=O)(=O)c3c(C)cc(C)cc3C)OCCCO2)c(C)c1
TGI (SNB-75 CNS): > 100 µM | TGI (OVCAR-4 ovarian): > 100 µM | TGI (MDA-MB-231 breast): > 100 µM | TGI (HOP-92 NSCLC): > 100 µM | TGI (UACC-62 melanoma): > 100 µM | TGI (OVCAR-3 ovarian): > 100 µM | TGI (786-0 renal): > 100 µM | TGI (MOLT-4 leukemia): > 100 µM | TGI (SNB-19 CNS): > 100 µM | TGI (K-562 leukemia): > 100 µM | TGI (EKVX NSCLC): > 100 µM | TGI (CAKI-1 renal): > 100 µM | TGI (KM12 colon): > 100 µM | TGI (SF-268 CNS): > 100 µM | TGI (NCI-H460 lung): > 100 µM | TGI (UO-31 renal): > 100 µM | TGI (CCRF-CEM leukemia): > 100 µM | TGI (IGROV1 ovarian): > 100 µM | TGI (A549 NSCLC): > 100 µM | TGI (HCT-116 colon): > 100 µM | TGI (TK-10 renal): > 100 µM | TGI (HS 578T breast): > 100 µM | TGI (PC-3 prostate): > 100 µM | TGI (SK-OV-3 ovarian): > 100 µM | TGI (SK-MEL-2 melanoma): > 100 µM | TGI (ACHN renal): > 100 µM | TGI (NCI-H522 lung): > 100 µM | TGI (SW-620 colon): > 100 µM | TGI (OVCAR-8 ovarian): > 100 µM | TGI (NCI/ADR-RES ovarian): > 100 µM | TGI (BT-549 breast): > 100 µM | TGI (MDA-MB-435): > 100 µM | TGI (COLO 205 colon): > 100 µM | TGI (SK-MEL-28 melanoma): > 100 µM | TGI (HCC-2998 colon): > 100 µM | TGI (SF-539 CNS): > 100 µM | TGI (MDA-N): > 100 µM | TGI (SR leukemia): > 100 µM | TGI (M14 melanoma): > 100 µM | TGI (NCI-H23 lung): > 100 µM | TGI (NCI-H226 lung): > 100 µM | TGI (HOP-62 NSCLC): > 100 µM | TGI (RXF 393 renal): > 100 µM | TGI (HL-60(TB) leukemia): > 100 µM | TGI (LOX IMVI melanoma): > 100 µM | TGI (U251 CNS): > 100 µM | TGI (DU-145 prostate): > 100 µM | TGI (SK-MEL-5 melanoma): > 100 µM | TGI (RPMI-8226 leukemia): > 100 µM | TGI (HCT-15 colon): > 100 µM | TGI (SF-295 CNS): > 100 µM | TGI (MCF7 breast): > 100 µM | TGI (MALME-3M melanoma): > 100 µM | TGI (OVCAR-5 ovarian): > 100 µM | TGI (UACC-257 melanoma): > 100 µM | TGI (HT29 colon): > 100 µM

O=S(=O)(c1ccccc1)n1c2cc3cccnc3nc2c2cccnc21
TGI (SNB-75 CNS): > 100 µM | TGI (OVCAR-4 ovarian): > 100 µM | TGI (MDA-MB-231 breast): > 100 µM | TGI (HOP-92 NSCLC): > 100 µM | TGI (OVCAR-3 ovarian): > 100 µM | TGI (SN12C renal): > 100 µM | TGI (786-0 renal): > 100 µM | TGI (MOLT-4 leukemia): > 100 µM | TGI (SNB-19 CNS): > 100 µM | TGI (K-562 leukemia): 55.3 µM | TGI (EKVX NSCLC): > 100 µM | TGI (CAKI-1 renal): > 100 µM | TGI (KM12 colon): > 100 µM | TGI (SF-268 CNS): > 100 µM | TGI (NCI-H460 lung): > 100 µM | TGI (UO-31 renal): > 100 µM | TGI (CCRF-CEM leukemia): > 100 µM | TGI (IGROV1 ovarian): > 100 µM | TGI (A549 NSCLC): > 100 µM | TGI (HCT-116 colon): > 100 µM | TGI (TK-10 renal): > 100 µM | TGI (HS 578T breast): > 100 µM | TGI (PC-3 prostate): > 100 µM | TGI (SK-OV-3 ovarian): > 100 µM | TGI (SK-MEL-2 melanoma): > 100 µM | TGI (ACHN renal): > 100 µM | TGI (NCI-H522 lung): > 100 µM | TGI (SW-620 colon): > 100 µM | TGI (OVCAR-8 ovarian): > 100 µM | TGI (NCI/ADR-RES ovarian): > 100 µM | TGI (BT-549 breast): > 100 µM | TGI (MDA-MB-435): 60 µM | TGI (COLO 205 colon): > 100 µM | TGI (A498 renal): > 100 µM | TGI (SK-MEL-28 melanoma): > 100 µM | TGI (HCC-2998 colon): > 100 µM | TGI (MDA-N): > 100 µM | TGI (SR leukemia): 30.4 µM | TGI (M14 melanoma): > 100 µM | TGI (NCI-H23 lung): > 100 µM | TGI (NCI-H226 lung): > 100 µM | TGI (HOP-62 NSCLC): > 100 µM | TGI (RXF 393 renal): 90.9 µM | TGI (HL-60(TB) leukemia): 48.1 µM | TGI (LOX IMVI melanoma): > 100 µM | TGI (U251 CNS): > 100 µM | TGI (SK-MEL-5 melanoma): > 100 µM | TGI (RPMI-8226 leukemia): 56.6 µM | TGI (HCT-15 colon): > 100 µM | TGI (SF-295 CNS): > 100 µM | TGI (MCF7 breast): > 100 µM | TGI (MALME-3M melanoma): > 100 µM | TGI (OVCAR-5 ovarian): > 100 µM | TGI (UACC-257 melanoma): > 100 µM | TGI (HT29 colon): > 100 µM
